In US20250352520A1, “USE OF DEXPRAMIPEXOLE FOR THE TREATMENT OF EOSINOPHILIC COPD” (Areteia Therapeutics, Inc., priority 2024, published 2025):

Details: Week 8; >=50% AEC reduction at Week 16

CCCN[C@@H]1CCc2nc(N)sc2C1 [Dexpramipexole, (6R)-2-amino-4,5,6,7-tetrahydro-6-(propylamino)benzothiazole]
Pre-BD FEF25-75 % change from baseline, Max: 38% | Pre-BD FEF25-75 % change from baseline, Mean ± SD: 10.2 ± 27.88% | Pre-BD FEF25-75 % change from baseline, Median: 9.5% | Pre-BD FEF25-75 % change from baseline, Min: −17% | Pre-BD FEF25-75 % change from baseline, Q1: −17% | Pre-BD FEF25-75 % change from baseline, Q3: 38% | Pre-BD FEF25-75 Observed, Max: 1010 mL/s | Pre-BD FEF25-75 Observed, Mean ± SD: 666.7 ± 398.29 mL/s | Pre-BD FEF25-75 Observed, Median: 760.0 mL/s | Pre-BD FEF25-75 Observed, Min: 230 mL/s | Pre-BD FEF25-75 Observed, Q1: 230 mL/s | Pre-BD FEF25-75 Observed, Q3: 1010 mL/s | Pre-BD FEF25-75 change from baseline, Max: 280 mL/s | Pre-BD FEF25-75 change from baseline, Mean ± SD: 46.7 ± 221.21 mL/s | Pre-BD FEF25-75 change from baseline, Median: 20.0 mL/s | Pre-BD FEF25-75 change from baseline, Min: -160 mL/s | Pre-BD FEF25-75 change from baseline, Q1: -160 mL/s | Pre-BD FEF25-75 change from baseline, Q3: 280 mL/s | Pre-BD FEV1 % change from baseline, Max: 53% | Pre-BD FEV1 % change from baseline, Mean ± SD: 18.7 ± 30.56% | Pre-BD FEV1 % change from baseline, Median: 8.3% | Pre-BD FEV1 % change from baseline, Min: −5% | Pre-BD FEV1 % change from baseline, Q1: −5% | Pre-BD FEV1 % change from baseline, Q3: 53% | Pre-BD FEV1 Observed, Max: 1990 mL | Pre-BD FEV1 Observed, Mean ± SD: 1453.3 ± 616.47 mL | Pre-BD FEV1 Observed, Median: 1590.0 mL | Pre-BD FEV1 Observed, Min: 780 mL | Pre-BD FEV1 Observed, Q1: 780 mL | Pre-BD FEV1 Observed, Q3: 1990 mL | Pre-BD FEV1 change from baseline, Max: 690 mL | Pre-BD FEV1 change from baseline, Mean ± SD: 220.0 ± 413.88 mL | Pre-BD FEV1 change from baseline, Median: 60.0 mL | Pre-BD FEV1 change from baseline, Min: -90 mL | Pre-BD FEV1 change from baseline, Q1: -90 mL | Pre-BD FEV1 change from baseline, Q3: 690 mL | Pre-BD FVC % change from baseline, Max: 24% | Pre-BD FVC % change from baseline, Mean ± SD: 8.8 ± 13.54% | Pre-BD FVC % change from baseline, Median: 3.3% | Pre-BD FVC % change from baseline, Min: −1% | Pre-BD FVC % change from baseline, Q1: −1% | Pre-BD FVC % change from baseline, Q3: 24% | Pre-BD FVC Observed, Max: 3130 mL | Pre-BD FVC Observed, Mean ± SD: 2626.7 ± 477.53 mL | Pre-BD FVC Observed, Median: 2570.0 mL | Pre-BD FVC Observed, Min: 2180 mL | Pre-BD FVC Observed, Q1: 2180 mL | Pre-BD FVC Observed, Q3: 3130 mL | Pre-BD FVC change from baseline, Max: 610 mL | Pre-BD FVC change from baseline, Mean ± SD: 216.7 ± 344.29 mL | Pre-BD FVC change from baseline, Median: 70.0 mL | Pre-BD FVC change from baseline, Min: -30 mL | Pre-BD FVC change from baseline, Q1: -30 mL | Pre-BD FVC change from baseline, Q3: 610 mL | Pre-BD Peak Flow % change from baseline, Max: 90% | Pre-BD Peak Flow % change from baseline, Mean ± SD: 25.2 ± 58.36% | Pre-BD Peak Flow % change from baseline, Median: 9.6% | Pre-BD Peak Flow % change from baseline, Min: −24% | Pre-BD Peak Flow % change from baseline, Q1: −24% | Pre-BD Peak Flow % change from baseline, Q3: 90% | Pre-BD Peak Flow Observed, Max: 298 L/min | Pre-BD Peak Flow Observed, Mean ± SD: 197.7 ± 87.79 L/min | Pre-BD Peak Flow Observed, Median: 160.0 L/min | Pre-BD Peak Flow Observed, Min: 135 L/min | Pre-BD Peak Flow Observed, Q1: 135 L/min | Pre-BD Peak Flow Observed, Q3: 298 L/min | Pre-BD Peak Flow change from baseline, Max: 141 L/min | Pre-BD Peak Flow change from baseline, Mean ± SD: 37.7 ± 93.77 L/min | Pre-BD Peak Flow change from baseline, Median: 14.0 L/min | Pre-BD Peak Flow change from baseline, Min: -42 L/min | Pre-BD Peak Flow change from baseline, Q1: -42 L/min | Pre-BD Peak Flow change from baseline, Q3: 141 L/min
